Measured values published in ChEMBL document CHEMBL4364344, “Design, synthesis and evaluation of activity and pharmacokinetic profile of new derivatives of xanthone and piperazine in the central nervous system” (Bioorg Med Chem Lett, 2019).
The source made the active and inactive calls. The calls are words filed in the database; no cut-off is given here.

Tests used:
Mus musculus [1] = test: Antidepressant-like activity in albino Swiss CD-1 mouse assessed as reduction in immobility at 20 mg/kg, ip pretreated for 30 mins and measured after 6 mins by force swim test relative to control; assay type: functional; set-up: scale not given: the % may be the effect or the level left
Mus musculus [2] = test: Anxiolytic activity in Swiss CD-1 mouse assessed as increase in number of punished crossings at 5 mg/kg, ip administered 30 mins prior to test and measured for 60 secs by four-plate test relative to control; assay type: functional
[3] = target: 5-hydroxytryptamine receptor 2A (Homo sapiens, UniProt P28223); test: Displacement of [3H]-ketanserin from human 5-HT2A receptor expressed in CHO-K1 cell membranes after 60 mins by microbeta scintillation counting analysis
5-hydroxytryptamine receptor 2A, sequence (P28223 whole entry): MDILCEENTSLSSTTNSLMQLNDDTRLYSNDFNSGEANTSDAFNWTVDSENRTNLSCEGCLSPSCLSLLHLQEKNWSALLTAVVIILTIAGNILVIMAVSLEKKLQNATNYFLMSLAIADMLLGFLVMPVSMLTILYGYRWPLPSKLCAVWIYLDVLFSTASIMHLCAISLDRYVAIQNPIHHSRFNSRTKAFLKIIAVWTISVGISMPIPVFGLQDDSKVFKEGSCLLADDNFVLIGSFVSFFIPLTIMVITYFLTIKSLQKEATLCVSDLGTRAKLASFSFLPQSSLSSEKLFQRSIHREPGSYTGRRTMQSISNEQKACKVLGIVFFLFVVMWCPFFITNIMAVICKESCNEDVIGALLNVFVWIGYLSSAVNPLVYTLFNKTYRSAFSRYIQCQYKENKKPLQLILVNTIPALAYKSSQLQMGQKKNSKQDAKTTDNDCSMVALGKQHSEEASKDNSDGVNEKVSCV

Mus musculus [4] = test: Antidepressant-like activity in CD-1 mouse assessed as reduction in immobility at 10 mg/kg, ip pretreated for 30 mins and measured after 6 mins by force swim test relative to control; assay type: functional; set-up: scale not given: the % may be the effect or the level left
[5] = target: Serotonin 2 (5-HT2) receptor (Rattus norvegicus) (UniProt P30994+P08909+P14842); test: Displacement of [3H]ketanserin from 5-HT2 receptor in Wistar rat brain cortex membrane at 10 uM after 40 mins by scintillation counting analysis relative to control; assay type: cell membranes
Serotonin 2 (5-HT2) receptor (Rattus norvegicus), sequence (P08909 whole entry, looked up): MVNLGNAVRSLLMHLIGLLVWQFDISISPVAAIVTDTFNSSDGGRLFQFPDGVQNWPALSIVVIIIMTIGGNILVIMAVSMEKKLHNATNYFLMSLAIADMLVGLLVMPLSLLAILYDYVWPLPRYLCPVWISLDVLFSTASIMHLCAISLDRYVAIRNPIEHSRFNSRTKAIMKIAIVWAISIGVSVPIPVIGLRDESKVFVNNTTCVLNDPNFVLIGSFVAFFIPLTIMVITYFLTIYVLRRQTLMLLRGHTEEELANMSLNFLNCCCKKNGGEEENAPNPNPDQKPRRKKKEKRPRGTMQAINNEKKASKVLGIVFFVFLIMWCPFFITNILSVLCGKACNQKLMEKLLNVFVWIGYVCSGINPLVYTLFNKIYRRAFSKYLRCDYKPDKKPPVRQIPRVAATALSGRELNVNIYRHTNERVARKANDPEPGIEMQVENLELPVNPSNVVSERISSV
Serotonin 2 (5-HT2) receptor (Rattus norvegicus), sequence (P14842 whole entry, looked up): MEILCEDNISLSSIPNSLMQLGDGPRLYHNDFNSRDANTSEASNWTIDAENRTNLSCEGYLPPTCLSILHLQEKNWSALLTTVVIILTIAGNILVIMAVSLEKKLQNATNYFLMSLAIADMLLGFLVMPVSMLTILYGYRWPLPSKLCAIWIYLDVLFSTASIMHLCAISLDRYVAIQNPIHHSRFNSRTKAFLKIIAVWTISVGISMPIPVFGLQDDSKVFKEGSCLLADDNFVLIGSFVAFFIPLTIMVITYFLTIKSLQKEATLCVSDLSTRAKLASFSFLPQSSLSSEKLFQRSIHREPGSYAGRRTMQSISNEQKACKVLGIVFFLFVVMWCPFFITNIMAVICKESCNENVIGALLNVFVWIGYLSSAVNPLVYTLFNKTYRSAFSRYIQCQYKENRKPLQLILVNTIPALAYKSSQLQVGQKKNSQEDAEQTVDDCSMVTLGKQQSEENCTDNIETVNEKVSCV
Serotonin 2 (5-HT2) receptor (Rattus norvegicus), sequence (P30994 whole entry, looked up): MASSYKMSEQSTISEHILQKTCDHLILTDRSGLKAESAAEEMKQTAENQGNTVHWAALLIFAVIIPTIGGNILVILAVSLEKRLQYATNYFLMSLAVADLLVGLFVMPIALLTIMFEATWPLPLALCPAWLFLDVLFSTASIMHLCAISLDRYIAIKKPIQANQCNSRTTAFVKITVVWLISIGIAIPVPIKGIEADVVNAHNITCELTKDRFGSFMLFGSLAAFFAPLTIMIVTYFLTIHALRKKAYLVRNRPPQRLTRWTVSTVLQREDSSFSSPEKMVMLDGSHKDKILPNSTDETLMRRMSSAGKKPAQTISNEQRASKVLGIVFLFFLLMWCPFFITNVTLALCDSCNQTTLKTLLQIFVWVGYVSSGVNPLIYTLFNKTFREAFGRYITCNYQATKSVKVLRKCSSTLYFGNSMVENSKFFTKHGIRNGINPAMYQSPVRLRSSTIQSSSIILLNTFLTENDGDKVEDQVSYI

[6] = Mutagenicity in Salmonella typhimurium TA100 at 5 ug/plate preincubated for 20 mins followed by addition of top agar and measured after 48 hrs by Ames test; assay type: toxicity; settings: salmonella enterica subsp. enterica serovar typhimurium
[7] = Mutagenicity in Salmonella typhimurium TA98 at 2.5 ug/plate preincubated for 20 mins followed by addition of top agar and measured after 48 hrs by Ames test; assay type: toxicity; settings: salmonella enterica subsp. enterica serovar typhimurium
Mus musculus [8] = test: Antidepressant-like activity in albino Swiss CD-1 mouse assessed as reduction in immobility at 5 mg/kg, ip administered 30 mins prior to test and measured after 6 mins by force swim test relative to control; assay type: functional; set-up: scale not given: the % may be the effect or the level left
[9] = AUC (0 to t) in CD-1 mouse plasma at 5 mg/kg, ip measured up to 480 mins by LC/ESI-MS/MS analysis; assay type: ADME, organism-based; set-up: dose 5 mg/kg, time < 8 hr, route intraperitoneal
[10] = Terminal half life in CD-1 mouse plasma at 5 mg/kg, ip measured up to 480 mins by LC/ESI-MS/MS analysis; assay type: ADME, organism-based; settings: read-out: beta t1/2
[11] = MRT in CD-1 mouse plasma at 5 mg/kg, ip measured up to 480 mins by LC/ESI-MS/MS analysis; assay type: ADME, organism-based
[12] = Cmax in CD-1 mouse plasma at 5 mg/kg, ip measured up to 480 mins by LC/ESI-MS/MS analysis; assay type: ADME, organism-based; set-up: dose 5 mg/kg, route intraperitoneal
[13] = Tmax in CD-1 mouse plasma at 5 mg/kg, ip measured up to 480 mins by LC/ESI-MS/MS analysis; assay type: ADME, organism-based
[14] = Apparent volume of distribution in CD-1 mouse plasma at 5 mg/kg, ip measured up to 480 mins by LC/ESI-MS/MS analysis; assay type: ADME, organism-based
[15] = Apparent clearance in CD-1 mouse plasma at 5 mg/kg, ip measured up to 480 mins by LC/ESI-MS/MS analysis; assay type: ADME, organism-based
[16] = Ratio of drug uptake in CD-1 mouse brain to plasma at 5 mg/kg, ip measured up to 480 mins by LC/ESI-MS/MS analysis; assay type: ADME, organism-based; settings: read-out: BPR
[17] = AUC (0 to total) in CD-1 mouse brain at 5 mg/kg, ip measured up to 480 mins by LC/ESI-MS/MS analysis; assay type: ADME, organism-based; settings: in vivo, 8 h
[18] = Terminal half life in CD-1 mouse brain at 5 mg/kg, ip measured up to 480 mins by LC/ESI-MS/MS analysis; assay type: ADME, organism-based; settings: read-out: beta t1/2
[19] = MRT in CD-1 mouse brain at 5 mg/kg, ip measured up to 480 mins by LC/ESI-MS/MS analysis; assay type: ADME, organism-based
[20] = Cmax in CD-1 mouse brain at 5 mg/kg, ip measured up to 480 mins by LC/ESI-MS/MS analysis; assay type: ADME, organism-based; set-up: dose 5 mg/kg, route intraperitoneal
[21] = Tmax in CD-1 mouse brain at 5 mg/kg, ip measured up to 480 mins by LC/ESI-MS/MS analysis; assay type: ADME, organism-based
[22] = Mutagenicity in Salmonella typhimurium TA100 at 50 ug/plate preincubated for 20 mins followed by addition of top agar and measured after 48 hrs by Ames test; assay type: toxicity; settings: salmonella enterica subsp. enterica serovar typhimurium
[23] = Mutagenicity in Salmonella typhimurium TA100 at 250 ug/plate preincubated for 20 mins followed by addition of top agar and measured after 48 hrs by Ames test; assay type: toxicity; settings: salmonella enterica subsp. enterica serovar typhimurium
[24] = Mutagenicity in Salmonella typhimurium TA100 at 500 ug/plate preincubated for 20 mins followed by addition of top agar and measured after 48 hrs by Ames test; assay type: toxicity; settings: salmonella enterica subsp. enterica serovar typhimurium
[25] = Mutagenicity in Salmonella typhimurium TA98 at 5 ug/plate preincubated for 20 mins followed by addition of top agar and measured after 48 hrs by Ames test; assay type: toxicity; settings: salmonella enterica subsp. enterica serovar typhimurium
[26] = Mutagenicity in Salmonella typhimurium TA98 at 50 ug/plate preincubated for 20 mins followed by addition of top agar and measured after 48 hrs by Ames test; assay type: toxicity; settings: salmonella enterica subsp. enterica serovar typhimurium
[27] = Mutagenicity in Salmonella typhimurium TA102 at 5 ug/plate preincubated for 20 mins followed by addition of top agar and measured after 48 hrs by Ames test; assay type: toxicity; settings: salmonella enterica subsp. enterica serovar typhimurium
[28] = Mutagenicity in Salmonella typhimurium TA102 at 50 ug/plate preincubated for 20 mins followed by addition of top agar and measured after 48 hrs by Ames test; assay type: toxicity; settings: salmonella enterica subsp. enterica serovar typhimurium
[29] = Drug metabolism in mouse liver microsomes assessed as metabolite formation by measuring retention time at 20 uM after 30 to 60 mins in presence of NADP by UPLC/MS analysis; assay type: ADME, Microsome
Mus musculus [30] = test: Antidepressant-like activity in Swiss CD-1 mouse assessed as reduction in immobility at 10 mg/kg, ip pretreated for 30 mins and measured after 6 mins by force swim test; assay type: functional, organism-based
[31] = Mutagenicity in Salmonella typhimurium TA100 preincubated for 20 mins followed by addition of top agar and measured after 48 hrs by Ames test; assay type: toxicity; settings: salmonella enterica subsp. enterica serovar typhimurium
Mus musculus [32] = test: Antidepressant-like activity in albino Swiss CD-1 mouse assessed as reduction in immobility at 10 mg/kg, ip pretreated for 30 mins and measured after 6 mins by force swim test relative to control; assay type: functional; set-up: scale not given: the % may be the effect or the level left
[33] = Mutagenicity in Salmonella typhimurium TA98 at 250 ug/plate preincubated for 20 mins followed by addition of top agar and measured after 48 hrs by Ames test; assay type: toxicity; settings: salmonella enterica subsp. enterica serovar typhimurium
[34] = Mutagenicity in Salmonella typhimurium TA98 at 500 ug/plate preincubated for 20 mins followed by addition of top agar and measured after 48 hrs by Ames test; assay type: toxicity; settings: salmonella enterica subsp. enterica serovar typhimurium
[35] = Mutagenicity in Salmonella typhimurium TA102 at 250 ug/plate preincubated for 20 mins followed by addition of top agar and measured after 48 hrs by Ames test; assay type: toxicity; settings: salmonella enterica subsp. enterica serovar typhimurium
[36] = Mutagenicity in Salmonella typhimurium TA102 at 500 ug/plate preincubated for 20 mins followed by addition of top agar and measured after 48 hrs by Ames test; assay type: toxicity; settings: salmonella enterica subsp. enterica serovar typhimurium
Mus musculus [37] = test: Anxiolytic activity in albino Swiss CD-1 mouse assessed as increase in number of punished crossings at 5 mg/kg, ip administered 30 mins prior to test by four-plate test relative to control; assay type: functional
Mus musculus [38] = test: Anxiolytic activity in albino Swiss CD-1 mouse assessed as increase in number of punished crossings at 20 mg/kg, ip administered 30 mins prior to test by four-plate test relative to control; assay type: functional

SMILES: CN1CCN(Cc2cccc3c(=O)c4ccc(Cl)cc4oc23)CC1.Cl.Cl
- Activity (Mus musculus [1]): 28%
- Activity (Mus musculus [2]): 100%

SMILES: COc1ccc2c(=O)c3cc(CN4CCN(c5ccccc5OC)CC4)ccc3oc2c1.Cl
- Ki [3]: 561 nM
- Activity (Mus musculus [4]): 32%

SMILES: O=c1c2ccccc2oc2c(CN3CCN(c4ccccc4)CC3)cccc12
- inhibition [5]: 88%

SMILES: COc1ccc2c(=O)c3cccc(CN4CCN(c5ccccc5)CC4)c3oc2c1
- inhibition [5]: 91%

SMILES: O=c1c2cc(Cl)ccc2oc2ccc(CN3CCN(CCO)CC3)cc12
- inhibition [5]: 43%

SMILES: [N-]=[N+]=[N-].[Na+] [SODIUM AZIDE]
- Activity_index [6]: 2.26

SMILES: CCOC(=O)N1CCN(Cc2cccc3c(=O)c4ccccc4oc23)CC1
- inhibition [5]: 3%

SMILES: O=c1c2ccc(Cl)cc2oc2ccc(CN3CCN(CCO)CC3)cc12
- inhibition [5]: 39%

SMILES: COc1ccc2c(=O)c3cccc(CN4CCN(c5ccccc5OC)CC4)c3oc2c1.Cl
- Ki [3]: 2180 nM
- Activity (Mus musculus [4]): 24%

SMILES: Nc1ccc([N+](=O)[O-])cc1N
- Activity_index [7]: 10.79

SMILES: CN1CCN(Cc2ccc3oc4ccc(Cl)cc4c(=O)c3c2)CC1
- Activity (Mus musculus [1]): 24.7%
- inhibition [5]: 50%
- Activity (Mus musculus [8]): 37.8%
- AUC(0-t) at 8 h [9]: 334 ng·h/mL
- half-life [10]: 126 min
- MRT [11]: 129 min
- Cmax [12]: 136 ng/mL
- Tmax [13]: 15 min
- Vd/F [14]: 41.3 L/kg
- CL/F [15]: 226 mL/min/kg
- Kp at 8 h [16]: 31.6
- AUCt [17]: 633023 ng·min/g
- half-life [18]: 159 min
- MRT [19]: 152 min
- Cmax [20]: 3690 ng/mL
- Tmax [21]: 30 min
- Activity_index [6]: 1.21
- Activity_index [22]: 0.43
- Activity_index [23]: 2.08
- Activity_index [24]: 2.93
- Activity_index [25]: 1.04
- Activity_index [26]: 0.78
- Activity_index [27]: 1.04
- Activity_index [28]: 0.86
- Retention_time [29]: 4.64 min
- Activity (Mus musculus [30]): inactive
- Activity_index [31]: Dose-dependent effect

SMILES: Cl.Cl.O=c1c2ccc(Cl)cc2oc2c(CN3CCN(CCO)CC3)cccc12
- Activity (Mus musculus [32]): 30%

SMILES: Cl.Cl.O=c1c2ccccc2oc2c(CN3CCN(CCO)CC3)cccc12
- Activity (Mus musculus [32]): 25.6%
- inhibition [5]: 0%
- Activity (Mus musculus [8]): 38.1%
- AUC(0-t) at 8 h [9]: 215 ng·h/mL
- half-life [10]: 48.3 min
- MRT [11]: 40.3 min
- Cmax [12]: 462 ng/mL
- Tmax [13]: 15 min
- Vd/F [14]: 26.9 L/kg
- CL/F [15]: 386 mL/min/kg
- Kp at 8 h [16]: 4.85
- AUCt [17]: 62578 ng·min/g
- half-life [18]: 143 min
- MRT [19]: 24.1 min
- Cmax [20]: 2630 ng/mL
- Tmax [21]: 15 min
- Activity_index [6]: 0.69
- Activity_index [22]: 0.79
- Activity_index [23]: 0.46
- Activity_index [24]: 0.31
- Activity_index [25]: 1.34
- Activity_index [26]: 0.86
- Activity_index [33]: 0.52
- Activity_index [34]: 0.72
- Activity_index [27]: 0.74
- Activity_index [28]: 0.54
- Activity_index [35]: 0.39
- Activity_index [36]: 0.26
- Retention_time [29]: 3.05 min

SMILES: COc1ccccc1N1CCN(Cc2cccc3c(=O)c4ccccc4oc23)CC1
- inhibition [5]: 70%

SMILES: O=c1c2ccc(Cl)cc2oc2c(CN3CCN(c4ccccc4)CC3)cccc12
- inhibition [5]: 75%

SMILES: COc1ccc2c(=O)c3cccc(CN4CCN(Cc5ccccc5)CC4)c3oc2c1
- inhibition [5]: 41%

SMILES: COc1ccc(OCCCN2CCN(Cc3ccc4oc5cc(OC)ccc5c(=O)c4c3)CC2)cc1
- inhibition [5]: 75%

SMILES: COc1ccc(OCCCN2CCN(Cc3cccc4c(=O)c5ccc(OC)cc5oc34)CC2)cc1
- inhibition [5]: 38%

SMILES: CCOC(=O)N1CCN(Cc2cccc3c(=O)c4ccc(OC)cc4oc23)CC1.Cl.Cl
- Activity (Mus musculus [32]): 50.2%
- inhibition [5]: 22%
- Activity (Mus musculus [37]): 70.1%
- Activity (Mus musculus [38]): 55.3%
- AUC(0-t) at 8 h [9]: 481 ng·h/mL
- half-life [10]: 184 min
- MRT [11]: 60.5 min
- Cmax [12]: 468 ng/mL
- Tmax [13]: 15 min
- Vd/F [14]: 43.8 L/kg
- CL/F [15]: 165 mL/min/kg
- Kp at 8 h [16]: 2.86
- AUCt [17]: 82715 ng·min/g
- half-life [18]: 72 min
- MRT [19]: 74.6 min
- Cmax [20]: 936 ng/mL
- Tmax [21]: 30 min
- Activity_index [6]: 0.68
- Activity_index [22]: 0.61
- Activity_index [23]: 0.42
- Activity_index [24]: 0.34
- Activity_index [25]: 0.76
- Activity_index [26]: 0.79
- Activity_index [33]: 0.72
- Activity_index [34]: 1
- Activity_index [27]: 0.82
- Activity_index [28]: 0.77
- Activity_index [35]: 1.3
- Activity_index [36]: 0.87
- Retention_time [29]: 4.12 min
